Where two headings read alike, the source gives them in different places.
Key:
Normolipemic rats = experiment: Hypolipemic activity in normolipemic rats; format: in vivo, rat (Sprague Dawley Nos male rats); settings: for hypolipemic activity (in words): oral
toxic adrenaline doses = experiment: animal or person; format: in vivo, mouse (male mice CrI:CD 1(CR) BR); settings: Mus musculus, po, 24 h, read-out: PD50 (50% protective dose)
platelet aggregation = experiment: Collagen-induced platelet aggregation ex vivo; format: in vivo, rat
male mice = experiment: Anti-hypoxic activity (gasping time after decapitation); format: in vivo; settings: Mus musculus, po, 100 mg/kg/p.o., read-out: Gasping time, % diff. from control
[1] = test system: SH rats (spontaneously hypertensive rats); experiment: Anti-hypertensive activity in spontaneously hypertensive rats, tail artery plethysmography; format: in vivo, rat; settings: SHR
Protocol: The anti-hypertensive activity was tested on groups of 5 SH rats (spontaneously hypertensive rats) weighing 200±10 g, fasting for 18 hrs and treated orally with the invention compounds suspended in 2.5% gum arabic.
Changes in blood pressure (mm Hg) before (T=0) and after treatment (2, 4 and 6 hrs) were measured according to the method of tail artery plethysmography reported in "Spontaneously hypertensive rats (SHR): Guidlines for breeding, care and use", SHR Conference, 1976, page 11.
The arterial pressure before the treatment was 210±10 mmHg.

[2] = molecular target: alpha1-adrenergic receptors; settings: (a) Qian et al. 1983 for Tibalosine; (b) Van Zwieten et al. 1985 for Urapidil; cited from earlier work
[3] = molecular target: T1, alpha2-adrenergic receptors (Rattus norvegicus, UniProt P22909); settings: (a) Qian et al. 1983 for Tibalosine; (b) Van Zwieten et al. 1985 for Urapidil; cited from earlier work
T1 construct: from tissue; host or cells: rat brain membranes
T1 sequence (P22909 1-465): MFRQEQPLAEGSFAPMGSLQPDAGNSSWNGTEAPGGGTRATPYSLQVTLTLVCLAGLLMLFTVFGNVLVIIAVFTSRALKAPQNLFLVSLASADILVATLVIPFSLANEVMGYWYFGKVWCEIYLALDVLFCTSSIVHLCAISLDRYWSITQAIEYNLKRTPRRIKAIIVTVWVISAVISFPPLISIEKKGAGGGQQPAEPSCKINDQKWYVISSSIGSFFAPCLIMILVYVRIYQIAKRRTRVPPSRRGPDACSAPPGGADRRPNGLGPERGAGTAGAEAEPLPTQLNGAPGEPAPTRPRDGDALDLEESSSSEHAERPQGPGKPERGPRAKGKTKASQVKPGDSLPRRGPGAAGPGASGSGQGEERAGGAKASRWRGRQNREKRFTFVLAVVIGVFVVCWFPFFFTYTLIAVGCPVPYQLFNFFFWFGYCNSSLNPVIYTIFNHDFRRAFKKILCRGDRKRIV

[4] = 0.15 mM/kg oral, blood 1 hr after treatment, collagen 2-4 mcg/ml

## COc1ccc2cc(C(O)C(C)N3CCC(NC(=O)c4ccccc4)CC3)ccc2c1 (stereo not shown) [MG 38105, 2-(4-Benzamido-1-piperidinyl)-1-(6-methoxy-2-naphthyl)-propanol]
Normolipemic rats; 0.023 mM/kg/p.o. × 4 days
  CHOL, % different from control: -35.7%
  CHOL-HDL, % different from control: -13.3%
  Liver Weight, % different from control: +5.5%
  TG, % different from control: -36.2%
Normolipemic rats; 0.046 mM/kg/p.o. × 4 days
  CHOL, % different from control: -45.8%
  CHOL-HDL, % different from control: +1.3%
  Liver Weight, % different from control: +8.0%
  TG, % different from control: -63.8%
Normolipemic rats; 0.185 mM/kg/p.o. × 4 days
  CHOL, % different from control: -96.6%
  CHOL-HDL, % different from control: +3.9%
  Liver Weight, % different from control: +4.8%
  TG, % different from control: -70.6%
Normolipemic rats
  hypolipemic activity (in words): good activity at very low doses

## COc1ccc2cc(C(O)C(C)N3CCC(NC(=O)c4ccccc4)CC3)ccc2c1 (stereo not shown) [MG 38127, 2-(4-Benzamido-1-piperidinyl)-1-(6-methoxy-2-naphthyl)-propanol]
Normolipemic rats; 0.023 mM/kg/p.o. × 4 days
  CHOL, % different from control: -30.2%
  CHOL-HDL, % different from control: +7.6%
  Liver Weight, % different from control: -1.6%
  TG, % different from control: -41.4%
Normolipemic rats; 0.046 mM/kg/p.o. × 4 days
  CHOL, % different from control: -51.2%
  CHOL-HDL, % different from control: -1.8%
  Liver Weight, % different from control: +8.6%
  TG, % different from control: -66.3%
Normolipemic rats; 0.185 mM/kg/p.o. × 4 days
  CHOL, % different from control: -59.1%
  CHOL-HDL, % different from control: -19.8%
  Liver Weight, % different from control: +3.3%
  TG, % different from control: -81.7%
Normolipemic rats
  hypolipemic activity (in words): good activity at very low doses

## Cc1ccc(N(CC2=NCCN2)c2cccc(O)c2)cc1 [Phentolamine]
Toxic adrenaline doses
  ED50: 8 mg/kg

## COc1cc2nc(N3CCN(C(=O)c4ccco4)CC3)nc(N)c2cc1OC [Prazosin]
Toxic adrenaline doses
  ED50: 0.7 mg/kg

## CC(C)(Sc1cc(C(C)(C)C)c(O)c(C(C)(C)C)c1)Sc1cc(C(C)(C)C)c(O)c(C(C)(C)C)c1 [Probucol, reference compound]
Normolipemic rats; 0.205 mM/kg/p.o. × 8 days
  CHOL, % different from control: -25.0%
  CHOL-HDL, % different from control: -26%
  Liver Weight, % different from control: +4.0%
  TG, % different from control: -28.0%
Normolipemic rats; 0.82 mM/kg/p.o. × 4 days
  CHOL, % different from control: ~ 0%
  CHOL-HDL, % different from control: +18.5%
  Liver Weight, % different from control: ~ 0%
  TG, % different from control: ~ 0%
Normolipemic rats
  hypolipemic activity (in words): moderate and is noted only after prolonged treatment (8 days)

## O=C1C(CC[S+]([O-])c2ccccc2)C(=O)N(c2ccccc2)N1c1ccccc1 (stereo not shown) [Sulfinpyrazone, reference compound]
Platelet aggregation; rat, in vivo, po
  % Inhibition, Aggregation rate: 89.0%
  % Inhibition, Maximum aggregation: 92.5%

## CCCCCCCCNC(C)C(O)c1ccc(SC(C)C)cc1 (stereo not shown) [Suloctidil, reference compound]
Platelet aggregation; [4]
  % Inhibition, Aggregation rate: 57.5%
  % Inhibition, Maximum aggregation: 69.0%
Male mice; pretreatment 45 min
  change in vivo at 100 mg/kg: 27.5%
Male mice; pretreatment 90 min
  change in vivo at 100 mg/kg: 11.7%

## CC(NCCCCc1ccccc1)C(O)c1ccc2c(c1)CCS2 (stereo not shown) [Tibalosine]
[1]; 1 mg/kg p.o.
  Max. changes in systolic pressure: ~ 0 mmHg
[1]; 5 mg/kg p.o.
  Max. changes in systolic pressure: -13.2 mmHg
[1]; 15 mg/kg p.o.
  Max. changes in systolic pressure: -67 mmHg
[2]
  IC50: 0.4 µM
[3]
  IC50: 1000 µM

## Clc1ccccc1CN1CCc2sccc2C1 [Ticlopidine, reference compound]
Platelet aggregation; [4]
  % Inhibition, Aggregation rate: 56.0%
  % Inhibition, Maximum aggregation: 70.0%

## COc1ccccc1N1CCN(CCCNc2cc(=O)n(C)c(=O)n2C)CC1 [Urapidil]
[1]; 1 mg/kg p.o.
  Max. changes in systolic pressure: -16 mmHg
[1]; 5 mg/kg p.o.
  Max. changes in systolic pressure: -47 mmHg
[1]; 15 mg/kg p.o.
  Max. changes in systolic pressure: -72.4 mmHg
[2]
  IC50: 0.8 µM
[3]
  IC50: 14 µM

— patent US4902799A, “Bicyclic alkoxy- and alkylthio-substituted aminoalcohols” (Maggioni-Winthrop S.p.A., priority 1985, dated 1990)
